Results published in US7176035B2, “Protein-protein interactions and methods for identifying interacting proteins and the amino acid sequence at the site of interaction” (priority 1999, dated 2007).
Where no end group is shown, it is not given here.

Experiments:
[1] = test system: 57 kDa protein (α- and β-tubulins); experiment: Binding of rod-fixed overlapping hexapeptides of P-gp linker domains to [35S]methionine-labeled total cell lysate, SDS-PAGE; settings: for binding affinity to the 57 kDa protein in the overlapping hexapeptide scan: total cell lysate from [35S]methionine labeled CEM or CEM/VLB1.0 cells, bound proteins eluted with SDS, 10% SDS-PAGE; for binding of resynthesized hexapeptide to the 57 kDa protein: total cell lysate from [35S]methionine labeled cells, 24 hour or 48 hour incubation (FIG. 11)
Method: Pre-derivatized plastic rods, active ester and polypropylene trays were purchased from Cambridge Research Biochemicals (Valley Stream, N.Y.). Peptides were synthesized on solid polypropylene rods as previously described (36, 37). Briefly, the F-moc protecting group on the prederivatized polypropylene rods as solid support (arranged in a 96-well formate) was removed by incubation with 20% (v/v) piperidine in dimethylformamide (DMF) for 30 minutes with shaking. Following the deprotection of the β-alanine spacer on the polypropylene rods, Fmoc protected amino acids were dissolved in HOBt/DMF and added to the appropriate wells containing deprotected rods. Coupling of amino acids was allowed to take place for 18 hours at room temperature after which the rods were washed in DMF (1×2 minutes), methanol (4×2 minutes), and DMF (1×2 minutes). The coupling of the second amino acid required the deprotection of the F-moc amino protecting group of the first amino acid and incubation of the rods with the second preactivated F-moc-protected amino acids (pentafluorophenyl derivatives). The reaction was allowed to proceed for 18 hours, and the rods were removed and washed as indicated above. The same steps were repeated for each amino acid coupling until the sixth amino acid was coupled. Following the last coupling step, the F-moc N-terminal protecting group was removed with 20% piperidine/DMF and the free amino group acetylated for 90 minutes in an acetylation cocktail containing acetic anhydride:diisopropylethylamine (DIEA):DMF (50:1:50 v/v/v). The side chain protecting groups of the N-terminal acetylated hexapeptides onto the polypropylene rods were removed by incubation in a cleavage mixture containing trifluoroacetic acid:phenol:ethandithiol (95:2.5:2.5 v/v/v) for 4 hours at room temperature. After the cleavage step the rods were washed with dichloromethane (DCM) and neutralized in 5% (v/v) DIEA/DCM. The deprotected peptide-coupled rods were washed in DCM, methanol and vacuum dried for 18 hours.
Following metabolic labeling of proteins with [^35S] methionine, cells were washed 3 times with phosphate buffered saline (PBS) and resuspended in hypotonic buffer (10 mM KCl, 1.5 mM MgCl2, 10 mM Tris-HCl, pH 7.4) containing protease inhibitors (2 mM PMSF, 3 μg/ml Leupeptin, 4 μg/ml pepstatin A and 1 μg/ml aprotinin) and kept on ice for 30 minutes. […] The amount of protein in the above samples was determined by the method of Lowry (69).
For a binding assay, [^35S] methionine labeled proteins from total cell lysate were mixed with equal volume of 3–6% BSA in phosphate buffered saline (PBS) and incubated with overlapping hexapeptides covalently fixed to polypropylene rods. […] The peptides-fixed rods are now ready for the next round of screening. […]

~41 kDa protein = experiment: Resynthesized high affinity hexapeptides incubated with total cell lysate; assay type: binding; settings: total cell lysate from [35S]methionine labeled cells (FIG. 11); level rises with longer incubation
Method: Two high affinity binding sequences ^658RSSLIR^663 (SEQ ID NO: 7) and ^669SVRGSQ^674 (SEQ ID NO: 8) from HP-gp1 linker domain were resynthesized and incubated with total cell lysate from [^35S] methionine metabolically labeled cells following 24 hour or 48 hour incubation times. Bound proteins were eluted from peptide-fixed rods and resolved by 10% SDS-PAGE. The migration of the molecular weight markers is shown to the left of the figure.
For a binding assay, [^35S] methionine labeled proteins from total cell lysate were mixed with equal volume of 3–6% BSA in phosphate buffered saline (PBS) and incubated with overlapping hexapeptides covalently fixed to polypropylene rods. The peptides and total cell lysate were incubated overnight at 4° C. The rods were then removed and washed four times in PBS. The bound proteins were eluted by incubating the peptide-fixed rods in 1×SDS sample buffer for 60 minutes at room temperature with shaking. The peptides-fixed rods, were regenerated by incubation in PBS, containing 2% SDS and 1 mM β-mercaptoethanol at 65° C. in a sonicator for 30 minutes. Following the latter incubation, the rods were washed for five minutes in 65° C. ionized water and two minutes in 65° C. methanol. The peptides-fixed rods are now ready for the next round of screening. […]

“SVRGSQ: N-terminal acetylated hexapeptide from the second region of HP-gp1 linker domain, covalently fixed to polypropylene rods (Ac-SVRGSQ; also: attached to polypropylene rods; listed as Homo sapiens)” was tested. Which “binding affinity to the 57 kDa protein in the overlapping hexapeptide scan” value [1] did it give?
The value was “bound with the highest affinity to the 57 kDa protein”.

What about the “binding of resynthesized hexapeptide to the 57 kDa protein” value [1] of the same substance?
Its value is “bound specifically to the 57 kDa protein”.

And the “binding of resynthesized hexapeptide to a ~41 kDa protein” value (~41 kDa protein)?
Its value is “bound specifically”.

How did the “binding affinity to the 57 kDa protein in the overlapping hexapeptide scan” value [1] turn out when “RSSLIR: N-terminal acetylated hexapeptide from the second region of HP-gp1 linker domain, covalently fixed to polypropylene rods (Ac-RSSLIR; also: attached to polypropylene rods; listed as Homo sapiens)” was run?
Its value is “bound with the highest affinity to the 57 kDa protein”.

What about the “binding of resynthesized hexapeptide to the 57 kDa protein” value [1] of the same substance?
The value was “bound specifically to the 57 kDa protein”.

And the “binding of resynthesized hexapeptide to a ~41 kDa protein” value (~41 kDa protein)?
Its value is “bound specifically”.
